Paper PMC9181543, “Lysosomal Exocytosis of Olivacine on the Way to Explain Drug Resistance in Cancer Cells” (International Journal of Molecular Sciences, 2022)
“And” between values parts separate entries of the source, which are not always exact repeats. Equal entries are not always repeated.

Key:
Saos-2 cells = tested on: Saos-2 cells; design: method as in PMID 12881704; conditions: cited from earlier work
MCF-7 cells = tested on: MCF-7 cells; design: method as in PMID 11755121; conditions: 48 h exposure; cited from earlier work
MV4–11 cells = tested on: MV4–11 cells; design: method as in PMID 25107543; conditions: 5 μM; cited from earlier work
T24 cell = tested on: T24 cell; design: method as in PMID 28138703; conditions: T24 cell study; cited from earlier work
[1] = tested on: A549, MCF-7, LoVo, LoVo/DX, CCRF/CEM, and NHDF cells; experiment: MTT assay, whole cell line panel; format: cell-based; conditions: Homo sapiens, range across all cell lines, read-out: IC50 range over the cell lines
Description: The anticancer activity of tested compounds was assessed on five human cell lines selected from the panel of tumor cell lines recommended by the National Cancer Institute: A495 (lung carcinoma), CCRF/CEM (acute lymphoblastic leukemia), LoVo and LoVo/DX (two types of colorectal: non-resistant and resistant to doxorubicin), and MCF-7 (breast adenocarcinoma). In addition, the NHDF cell line (normal human dermal fibroblasts) was used to estimate cytotoxicity to noncancer cells. The A549, CCRF/CEM, LoVo, LoVo/DX, and MCF-7 cells were obtained from ECACC, and NHDF cells from LONZA, Belgium. The A549 and MCF-7 cells were grown in EMEM medium, CCRF/CEM cells in RPMI-1640, LoVo and LoVo/DX cells in DMEM/F-12, and NHDF cells in DMEM without phenol red. The cells were seeded in […] in the biological assay, as recommended by the National Cancer Institute. All culture media were supplemented with L-glutamine, penicillin, streptomycin, and 10% fetal bovine serum (FBS). […]
An assessment of the mitochondrial cell activity after applying tested compounds was carried out using the test MTT assay, recommended in the ISO 10993-5:2009 standard. […] After 30 min, absorbance at 570 nm in Victor2 microplate reader (PerkinElmer). Cell viability was determined as the IC50 ratio, i.e., the concentration of the compound in which the viability was reduced by half compared with the control.

IC50 [1]	Structure (SMILES)	concentration at which apoptosis was induced (Saos-2 cells)	IC50 (MCF-7 cells)	cell cycle effect (MV4–11 cells)	cell cycle effect (T24 cell)
	Cc1c2ccncc2c(C)c2c1[nH]c1ccccc12 [Ellipticine]	8 µM and 10 µM	1.25 ± 0.13 µM	arrest of the cell cycle at the G2/M checkpoint	stops the cell cycle in the G2/M phase
12 to 26 µM	Cc1nccc2c(C)c3[nH]c4ccccc4c3cc12 [Olivacine, 1,5-dimethyl-6H-pyrido[4,3-b]carbazole]				
